From US20100204144A1, “USE OF THE PEPTIDES MAIPPKKNQDK (COW KAPPA CASEIN 106-116) AND/OR YGFQNA (SERORPHIN) AS THERAPEUTIC AGENTS” (priority 2007, published 2010)
Where no end group is shown, it is not given here.

What was measured:
HIV-1IIIB = test: HIV-1 antiviral assay in CEM-SS cells (MTS read-out of virus cell killing)
[1] = tested on: hepatitis B virus (HBV) ayw strain; test: HBV assay in HepG2-2.2.15 cells (secreted HBV DNA, TaqMan PCR); assay type: cell-based; conditions: 10 micrograms per ml, six days, HBV DNA in supernatant
Text: HepG2-2.2.15 is a stable cell line containing the hepatitis B virus (HBV) ayw strain genome (ATCC Cat. No. CRL-11997). Antiviral compounds blocking any late step of viral replication such as transcription, translation, pregenome encapsidation, reverse transcription, particle assembly and release can be identified and characterized using this cell line. In this assay, an active compound will reduce the production of secreted HBV from cells, measured by utilizing real time quantitative PCR (TaqMan) assay to directly and accurately measure HBV DNA copies.
HepG2-2.2.15 cells were plated in 96-well microtiter plates. After 16-24 hours the confluent monolayer of HepG2-2.2.15 cells was washed and the medium was replaced with complete medium containing test peptides—10 micrograms per ml—in duplicate. […] Six days following the initial administration of the peptides, the cell culture supernatants was collected, treated with pronase and DNAse and then used in a real-time quantitative TaqMan PCR assay. The PCR-amplified HBV DNA was detected in real-time by monitoring increases in fluorescence signals that result from the exonucleolytic degradation of a quenched fluorescence probe molecule that hybridizes to the amplified HBV DNA. […] Antiviral activity was calculated from the reduction in HBV DNA levels (% virus control). […]

[2] = tested on: Human Peripheral Blood Mononuclear Cells (PBMC), B cell proliferation; test: B cell proliferation assay (SAC plus Interleukin-2, 3H-thymidine); assay type: cell-based; conditions: 10 micrograms per ml; SAC plus IL-2 stimulated PBMC
Description: Human Peripheral Blood Mononuclear Cells (PBMC) were obtained from normal human donors. The B cell proliferation was induced by stimulation of the cells with the B cell mitogen Staphylococcus aureus Cowans I (SAC) plus Interleukin-2, either in the absence (positive proliferation control), or in the presence of test peptides—10 micrograms per ml—to examine their effects on the B cell response. 10^5/well PBMC were plated in 96-well microtiter plates and assayed in duplicate with the peptides. […] At the end of incubation time, the plates were harvested and the cells counted by liquid scintillation for the incorporation of ^3H-thymidine as a measure of B cell proliferation.

[3] = tested on: IL-2, IL-4, IL-5, IFN-γ and TNF-α protein levels of spleen cells; test: Th1/Th2 cytokine profiling assay (Ovalbumin-restimulated spleen cells, CBA kit); assay type: cell-based, Balb/c mice; conditions: 10 micrograms per ml; Ovalbumin restimulation, 72 hours
Description: The Balb/c mice (originated in 1923, it is a popular strain and is used in many different research disciplines. Also classified as an inbred from the production of 20 or more successive brother-sister matings, the Balb/c mouse is albino and small in size) were immunized on Days 1, 15, and 29 with Ovalbumin (Ovalbumin is the main protein found in egg white, commonly used to stimulate an immunological reaction in test animals) in PBS (5 micrograms/injection). On day 50, spleens of the mice were harvested (3 weeks after last boost with Ovalbumin). […] Thereafter, additional Ovalbumin was added to the cells at 10 micrograms/ml for in vitro restimulation of the cells. 72 hours later, cell supernatants were harvested and assayed using the Becton Dickinson Mouse Th1/Th2 Cytokine CBA Kit. This kit can be used to measure Interleukin-2 (IL-2), Interleukin-4 (IL-4), Interleukin-5 (IL-5), Interferon-γ (IFN-γ), and Tumor Necrosis Factor-α (TNF-α) protein levels in a single sample.

[4] = tested on: Primary Human endothelial cells (HUVEC); test: Endothelial cell migration assay; assay type: cell-based; conditions: 10 micrograms per ml, 22 hours
Description: Thereafter, designated concentration of testing peptides -10 micrograms per ml—was added in duplicate wells.

HUVEC = test: Endothelial tube formation assay; assay type: cell-based, human; conditions: 10 micrograms per ml, 20 hours
Text: Positive control was vehicle only.

[5] = tested on: cyclic AMP generation in human peripheral blood mononuclear cells (PBMC); test: cAMP induction assay (ELISA); assay type: cell-based; conditions: 10 min at 37° C.
Description: The cAMP kit was used as an immunoassay for the quantitative determination of cyclic AMP generation in human peripheral blood mononuclear cells (PBMC). PBMC were placed in 96-well microtitier plates (50 microliters of cells at 4×10^6/ml) and 50 microliters of medium alone (background control), forskolin (cAMP positive control; 50 micrograms per ml), or test peptides were added. Plates were mixed and incubated for 10 min at 37° C. and the cells were lysed by the addition of 50 microliters of 3% perchloric acid. NaOH was added to neutralize the samples. Plates were centrifuged for 15 min at 2500 rpm and the supernatants removed. The supernatants (diluted 2-fold in assay buffer) were then assayed for the levels of cAMP by ELISA.

Compound	antiviral activity of positive control compounds (HIV-1) (HIV-1IIIB)	inhibition of HBV replication as compared to the virus control infection [1] [%]	inhibition of the proliferation of specifically stimulated human B-cells [2] [%]	IFNγ spleen cells; TH1 response (% of control) [3]	IL-2 spleen cells (% of control) [3]	IL-4 spleen cells; TH2 response (% of control) [3]	IL-5 spleen cells; TH2 response (% of control) [3]	TNF-a spleen cells; TH1 response (% of control) [3]	induction of the migration of human endothelial cells [4] [%]	inhibition of the tube formation of endothelial cells (HUVEC) [%]	induction of cAMP formation in human peripheral blood cells [5] [%]
Cc1cn([C@H]2C[C@H](N=[N+]=[N-])[C@@H](CO)O2)c(=O)[nH]c1=O [AZT]	expected levels of antiviral activity	–	–	–	–	–	–	–	–	–	–
CC(C)(C)NC(=O)[C@@H]1CN(Cc2cccnc2)CCN1C[C@@H](O)C[C@@H](Cc1ccccc1)C(=O)N[C@H]1c2ccccc2C[C@H]1O [indinavir]	expected levels of antiviral activity	–	–	–	–	–	–	–	–	–	–
Met-Ala-Ile-Pro-Pro-Lys-Lys-Asn-Gln-Asp-Lys-OH (MAIPPKKNQDK-OH) [peptide 1]	–	29.4	21.2	63.4 % of control	0.0 % of control	0.0 % of control	57.1 % of control	74.9 % of control	22	23	5.3
Tyr-Gly-Phe-Gln-Asn-Ala-OH (YGFQNA-OH) [peptide 2]	–	35.7	7.1	48.2 % of control	0.0 % of control	0.0 % of control	42.2 % of control	81.4 % of control	26	21	1.8
